Structures can show the parent of a compound that is named as a salt.
Legend:
HiBit-BRM fusion protein = biological target: T1, HiBit-BRM fusion protein (Homo sapiens, UniProt P51531); experiment: HiBiT-BRM cell-based degradation assay (Nano-Glo HiBiT Lytic Detection, 24 h); conditions: HeLa cells expressing HiBiT-BRM; for DC50: read-out: BRM HiBit Degradation IC50; for BRM HiBit Degradation Maximum measured: top dose 30 μM
T1 construct: expressed in transfected cells
Method in brief: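 HeLa cells stably expressing HiBiT-BRM were treated for 24 h with compounds (10-point 3-fold dilutions, 30 μM final top dose, in duplicate). HiBiT was detected by lytic LgBiT complementation luminescence. % degradation was normalized to DMSO (high control) and 2 μM of a reference BRM/BRG1 degrader (low control).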

[1] = biological target: T2, HiBit-BRG1 fusion protein (Homo sapiens, UniProt P51532); experiment: HiBiT-BRG1 cell-based degradation assay (Nano-Glo HiBiT Lytic Detection, 24 h); conditions: HeLa cells expressing HiBit-BRG1 and LgBit; for DC50: read-out: BRG1 HiBit Degradation IC50; for Dmax: HeLa, top dose 30 μM, read-out: BRG1 HiBit Degradation Maximum measured
T2 construct: expressed in transfected cells
Method in brief: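 Stable HeLa line expressing HiBiT-BRG1 and LgBiT, seeded at 5000 cells/well; luminescence read after lytic Nano-Glo HiBiT reagent and 10 min shaking at RT. % degradation normalised between DMSO (high control) and 2 μM reference BRM/BRG1 degrader (low control).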

T1 sequence (P51531 whole entry, the tested form may be a part): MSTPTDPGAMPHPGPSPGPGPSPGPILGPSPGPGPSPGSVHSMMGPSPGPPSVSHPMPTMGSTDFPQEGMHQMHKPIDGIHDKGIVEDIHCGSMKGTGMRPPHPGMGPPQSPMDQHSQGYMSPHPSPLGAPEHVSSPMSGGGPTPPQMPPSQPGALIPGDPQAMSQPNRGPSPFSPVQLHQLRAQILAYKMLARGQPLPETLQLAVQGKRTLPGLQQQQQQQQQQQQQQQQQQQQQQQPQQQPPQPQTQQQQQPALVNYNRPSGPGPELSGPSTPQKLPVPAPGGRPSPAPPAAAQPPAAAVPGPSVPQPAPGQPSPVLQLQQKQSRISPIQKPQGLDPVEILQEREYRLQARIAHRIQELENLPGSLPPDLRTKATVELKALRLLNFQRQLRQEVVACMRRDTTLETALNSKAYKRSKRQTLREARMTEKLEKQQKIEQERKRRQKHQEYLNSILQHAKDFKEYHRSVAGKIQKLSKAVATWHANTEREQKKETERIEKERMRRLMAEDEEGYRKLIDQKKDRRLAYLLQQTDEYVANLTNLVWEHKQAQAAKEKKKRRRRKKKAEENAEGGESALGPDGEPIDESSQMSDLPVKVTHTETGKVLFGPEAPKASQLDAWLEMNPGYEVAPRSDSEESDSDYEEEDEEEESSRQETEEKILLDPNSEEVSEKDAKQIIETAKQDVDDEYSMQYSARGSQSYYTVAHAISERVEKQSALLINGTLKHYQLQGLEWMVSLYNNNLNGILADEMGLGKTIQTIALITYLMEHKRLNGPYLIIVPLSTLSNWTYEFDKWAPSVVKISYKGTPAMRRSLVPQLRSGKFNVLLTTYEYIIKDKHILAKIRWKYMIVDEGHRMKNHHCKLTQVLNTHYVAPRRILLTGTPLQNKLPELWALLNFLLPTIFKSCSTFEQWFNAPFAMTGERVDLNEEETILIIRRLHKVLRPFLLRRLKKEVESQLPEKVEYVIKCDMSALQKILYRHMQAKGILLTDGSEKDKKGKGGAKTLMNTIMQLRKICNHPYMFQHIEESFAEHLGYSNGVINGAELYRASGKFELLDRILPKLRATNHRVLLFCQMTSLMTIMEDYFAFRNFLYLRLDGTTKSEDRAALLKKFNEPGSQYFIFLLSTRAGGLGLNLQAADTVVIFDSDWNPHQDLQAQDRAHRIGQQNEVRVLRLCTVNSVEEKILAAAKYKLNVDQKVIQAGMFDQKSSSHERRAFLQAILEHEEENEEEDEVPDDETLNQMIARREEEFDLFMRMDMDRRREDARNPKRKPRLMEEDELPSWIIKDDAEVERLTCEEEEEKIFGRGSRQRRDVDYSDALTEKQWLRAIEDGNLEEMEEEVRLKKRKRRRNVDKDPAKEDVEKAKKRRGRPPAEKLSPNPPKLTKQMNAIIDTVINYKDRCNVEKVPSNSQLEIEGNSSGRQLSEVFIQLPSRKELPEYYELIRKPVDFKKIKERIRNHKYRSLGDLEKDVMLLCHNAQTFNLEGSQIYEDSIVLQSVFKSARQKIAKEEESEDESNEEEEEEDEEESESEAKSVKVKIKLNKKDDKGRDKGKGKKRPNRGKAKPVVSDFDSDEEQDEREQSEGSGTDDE
T2 sequence (P51532 whole entry, the tested form may be a part): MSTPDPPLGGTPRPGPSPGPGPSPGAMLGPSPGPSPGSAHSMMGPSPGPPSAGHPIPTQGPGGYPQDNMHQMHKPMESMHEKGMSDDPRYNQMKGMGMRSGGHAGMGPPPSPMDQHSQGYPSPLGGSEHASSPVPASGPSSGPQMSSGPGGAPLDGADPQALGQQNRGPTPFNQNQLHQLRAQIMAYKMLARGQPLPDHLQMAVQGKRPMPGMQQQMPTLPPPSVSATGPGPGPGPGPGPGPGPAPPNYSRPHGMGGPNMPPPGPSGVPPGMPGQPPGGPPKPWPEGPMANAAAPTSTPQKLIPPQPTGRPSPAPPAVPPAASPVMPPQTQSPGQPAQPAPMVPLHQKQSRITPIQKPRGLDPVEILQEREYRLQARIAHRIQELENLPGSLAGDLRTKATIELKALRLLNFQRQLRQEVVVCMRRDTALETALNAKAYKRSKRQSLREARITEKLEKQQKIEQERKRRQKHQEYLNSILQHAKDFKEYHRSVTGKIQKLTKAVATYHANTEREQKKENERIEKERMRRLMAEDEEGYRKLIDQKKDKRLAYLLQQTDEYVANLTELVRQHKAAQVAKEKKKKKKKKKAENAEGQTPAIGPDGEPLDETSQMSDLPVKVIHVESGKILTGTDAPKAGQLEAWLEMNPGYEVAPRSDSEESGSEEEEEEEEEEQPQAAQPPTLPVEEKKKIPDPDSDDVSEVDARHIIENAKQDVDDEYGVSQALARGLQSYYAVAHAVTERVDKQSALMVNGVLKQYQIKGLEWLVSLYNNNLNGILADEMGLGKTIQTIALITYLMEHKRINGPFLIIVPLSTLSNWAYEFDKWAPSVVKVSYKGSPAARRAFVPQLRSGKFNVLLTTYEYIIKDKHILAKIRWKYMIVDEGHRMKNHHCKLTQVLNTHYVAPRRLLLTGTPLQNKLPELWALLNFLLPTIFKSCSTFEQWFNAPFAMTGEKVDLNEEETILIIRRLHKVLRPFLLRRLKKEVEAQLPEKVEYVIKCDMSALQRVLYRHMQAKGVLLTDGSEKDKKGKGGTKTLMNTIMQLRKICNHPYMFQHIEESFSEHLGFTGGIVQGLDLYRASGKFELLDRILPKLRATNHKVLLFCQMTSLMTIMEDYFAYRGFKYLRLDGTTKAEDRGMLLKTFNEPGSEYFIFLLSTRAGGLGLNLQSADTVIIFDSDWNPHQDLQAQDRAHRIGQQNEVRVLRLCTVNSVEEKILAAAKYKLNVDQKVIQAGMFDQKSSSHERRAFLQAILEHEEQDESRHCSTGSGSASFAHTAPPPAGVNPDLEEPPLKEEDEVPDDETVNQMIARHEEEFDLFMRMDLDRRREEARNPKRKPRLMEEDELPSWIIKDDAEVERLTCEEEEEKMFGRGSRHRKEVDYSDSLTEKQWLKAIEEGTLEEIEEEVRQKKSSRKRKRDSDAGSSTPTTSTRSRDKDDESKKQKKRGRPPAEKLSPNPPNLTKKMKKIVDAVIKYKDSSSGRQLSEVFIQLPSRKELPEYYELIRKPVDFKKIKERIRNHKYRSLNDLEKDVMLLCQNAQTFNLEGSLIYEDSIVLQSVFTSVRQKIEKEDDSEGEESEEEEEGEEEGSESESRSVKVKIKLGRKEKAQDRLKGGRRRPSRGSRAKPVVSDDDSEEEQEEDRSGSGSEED

Structure (SMILES): Cc1ncsc1-c1ccc(CNC(=O)[C@@H]2C[C@@H](O)CN2C(=O)[C@@H](NC(=O)CCCCCC(=O)NCc2cccc(-c3cccc(-c4csc(NC(=O)CNC(=O)c5ccn(S(C)(=O)=O)c5)n4)c3)c2)C(C)(C)C)cc1 [Compound 62, N1-((S)-1-((2S,4R)-4-hydroxy-2-((4-(4-methylthiazol-5-yl)benzyl)carbamoyl)pyrrolidin-1-yl)-3,3-dimethyl-1-oxobutan-2-yl)-N7-((3′-(2-(2-(1-(methylsulfonyl)-1H-pyrrole-3-carboxamido)acetamido)thiazol-4-yl)-[1,1′-biphenyl]-3-yl)methyl)heptanediamide]
- DC50 (HiBit-BRM fusion protein): 0.1 to 1 µM
- BRM HiBit Degradation Maximum measured (HiBit-BRM fusion protein): A (‘A’ = Maximum degradation >75%)
- DC50 [1]: 0.1 to 1 µM
- Dmax [1]: > 75%

Structure (SMILES): CS(=O)(=O)n1ccc(C(=O)N[C@@H](CCOCCCC(=O)N2CC(COc3cccc4c3C(=O)N(C3CCC(=O)NC3=O)C4=O)C2)C(=O)Nc2nc(-c3ccccc3)cs2)c1 (stereo partly drawn) [Compound 259, (2S)-4-[4-[3-([[2-(2,6-dioxopiperidin-3-yl)-1,3-dioxoisoindol-4-yl]oxy]methyl)azetidin-1-yl]-4-oxobutoxy]-2-[(1-methanesulfonylpyrrol-3-yl)formamido]-N-(4-phenyl-1,3-thiazol-2-yl)butanamide]
- DC50 (HiBit-BRM fusion protein): > 10 µM
- BRM HiBit Degradation Maximum measured (HiBit-BRM fusion protein): C (‘C’ = Maximum degradation <50%)
- DC50 [1]: > 10 µM
- Dmax [1]: < 50%

Structure (SMILES): CS(=O)(=O)n1ccc(C(=O)NCC(=O)Nc2nc(-c3cccc(-c4ccnc(N5CCN(C(=O)CCCOc6cccc7c6C(=O)N(C6CCC(=O)NC6=O)C7=O)CC5)c4)c3)cs2)c1 (stereo not drawn) [Compound 33, N-[2-[[4-[3-[2-[4-[4-[2-(2,6-dioxo-3-piperidyl)-1,3-dioxo-isoindolin-4-yl]oxybutanoyl]piperazin-1-yl]-4-pyridyl]phenyl]thiazol-2-yl]amino]-2-oxo-ethyl]-1-methylsulfonyl-pyrrole-3-carboxamide]
- DC50 (HiBit-BRM fusion protein): > 10 µM
- BRM HiBit Degradation Maximum measured (HiBit-BRM fusion protein): C (‘C’ = Maximum degradation <50%)
- DC50 [1]: > 10 µM
- Dmax [1]: < 50%

Structure (SMILES): Cc1ncsc1-c1ccc(CNC(=O)[C@@H]2C[C@@H](O)CN2C(=O)[C@@H](NC(=O)CCCCCCC(=O)NCCCC[C@H](NC(=O)c2ccn(S(C)(=O)=O)c2)C(=O)Nc2nc(-c3ccccc3)cs2)C(C)(C)C)cc1 [Compound 266, N′-[(2S)-1-[(2S,4R)-4-hydroxy-2-([[4-(4-methyl-1,3-thiazol-5-yl)phenyl]methyl]carbamoyl)pyrrolidin-1-yl]-3,3-dimethyl-1-oxobutan-2-yl]-N-[(5S)-5-[(1-methanesulfonylpyrrol-3-yl)formamido]-5-[(4-phenyl-1,3-thiazol-2-yl)carbamoyl]pentyl]octanediamide]
- DC50 (HiBit-BRM fusion protein): > 10 µM
- BRM HiBit Degradation Maximum measured (HiBit-BRM fusion protein): C (‘C’ = Maximum degradation <50%)
- DC50 [1]: > 10 µM
- Dmax [1]: < 50%

Structure (SMILES): Cc1ncsc1-c1ccc(CNC(=O)[C@@H]2C[C@@H](O)CN2C(=O)[C@@H](NC(=O)CCCCCCCCC(=O)NCCCC[C@H](NC(=O)c2ccn(S(C)(=O)=O)c2)C(=O)Nc2nc(-c3ccccc3)cs2)C(C)(C)C)cc1 [Compound 268]
- DC50 (HiBit-BRM fusion protein): > 10 µM
- BRM HiBit Degradation Maximum measured (HiBit-BRM fusion protein): C (‘C’ = Maximum degradation <50%)
- DC50 [1]: > 10 µM
- Dmax [1]: < 50%

Structure (SMILES): CS(=O)(=O)n1ccc(C(=O)N[C@@H](CCCCNC(=O)CCCCCCOc2cccc3c2C(=O)N(C2CCC(=O)NC2=O)C3=O)C(=O)Nc2nc(-c3ccccc3)cs2)c1 (stereo partly drawn) [Compound 290, 7-[[2-(2,6-dioxopiperidin-3-yl)-1,3-dioxoisoindol-4-yl]oxy]-N-[(5S)-5-[(1-methanesulfonylpyrrol-3-yl)formamido]-5-[(4-phenyl-1,3-thiazol-2-yl)carbamoyl]pentyl]heptanamide]
- DC50 (HiBit-BRM fusion protein): > 10 µM
- BRM HiBit Degradation Maximum measured (HiBit-BRM fusion protein): C (‘C’ = Maximum degradation <50%)
- DC50 [1]: > 10 µM
- Dmax [1]: < 50%

Structure (SMILES): CS(=O)(=O)n1ccc(C(=O)N[C@@H](CCOCCCC(=O)N2CC(CCOc3cccc4c3C(=O)N(C3CCC(=O)NC3=O)C4=O)C2)C(=O)Nc2nc(-c3ccccc3)cs2)c1 (stereo partly drawn) [Compound 224, (2S)-4-[4-[3-(2-[[2-(2,6-dioxopiperidin-3-yl)-1,3-dioxoisoindol-4-yl]oxy]ethyl)azetidin-1-yl]-4-oxobutoxy]-2-[(1-methanesulfonylpyrrol-3-yl)formamido]-N-(4-phenyl-1,3-thiazol-2-yl)butanamide]
- DC50 (HiBit-BRM fusion protein): > 10 µM
- BRM HiBit Degradation Maximum measured (HiBit-BRM fusion protein): C (‘C’ = Maximum degradation <50%)
- DC50 [1]: > 10 µM
- Dmax [1]: < 50%

Structure (SMILES): CS(=O)(=O)n1ccc(C(=O)N[C@@H](CCOCCCC(=O)N2CCC(CN3CCN(c4ccc5c(c4)C(=O)N(C4CCC(=O)NC4=O)C5=O)CC3)CC2)C(=O)Nc2nc(-c3ccccc3)cs2)c1 (stereo partly drawn) [Compound 220, N-((2S)-4-(4-(4-((4-(2-(2,6-dioxopiperidin-3-yl)-1,3-dioxoisoindolin-5-yl)piperazin-1-yl)methyl)piperidin-1-yl)-4-oxobutoxy)-1-oxo-1-((4-phenylthiazol-2-yl)amino)butan-2-yl)-1-(methylsulfonyl)-1H-pyrrole-3-carboxamide formate]
- DC50 (HiBit-BRM fusion protein): > 10 µM
- BRM HiBit Degradation Maximum measured (HiBit-BRM fusion protein): C (‘C’ = Maximum degradation <50%)
- DC50 [1]: > 10 µM
- Dmax [1]: < 50%

Structure (SMILES): Cc1c(C(=O)NCC(=O)Nc2nc(-c3cccc(-c4ccnc(N(C)CC(=O)NCCCCCCCCNC(=O)COc5cccc6c5C(=O)N(C5CCC(=O)NC5=O)C6=O)c4)c3)cs2)cn(S(C)(=O)=O)c1C (stereo not drawn) [Compound 41, N-[2-[[4-[3-[2-[[2-[8-[[2-[2-(2,6-dioxo-3-piperidyl)-1,3-dioxo-isoindolin-4-yl]oxyacetyl]amino]octylamino]-2-oxo-ethyl]-methyl-amino]-4-pyridyl]phenyl]thiazol-2-yl]amino]-2-oxo-ethyl]-4,5-dimethyl-1-methylsulfonyl-pyrrole-3-carboxamide]
- DC50 (HiBit-BRM fusion protein): > 10 µM
- BRM HiBit Degradation Maximum measured (HiBit-BRM fusion protein): C (‘C’ = Maximum degradation <50%)
- DC50 [1]: > 10 µM
- Dmax [1]: < 50%

Structure (SMILES): CS(=O)(=O)n1ccc(C(=O)N[C@@H](COCc2ccc(CNC(=O)C3CCN(CCOc4ccc5c(c4)C(=O)N(C4CCC(=O)NC4=O)C5=O)CC3)cc2)C(=O)Nc2nc(-c3ccccc3)cs2)c1 (stereo partly drawn) [Compound 216, 1-(2-[[2-(2,6-dioxopiperidin-3-yl)-1,3-dioxoisoindol-5-yl]oxy]ethyl)-N-[(4-[[(2S)-2-[(1-methanesulfonylpyrrol-3-yl)formamido]-2-[(4-phenyl-1,3-thiazol-2-yl)carbamoyl]ethoxy]methyl]phenyl)methyl]piperidine-4-carboxamide; formic acid]
- DC50 (HiBit-BRM fusion protein): 0.1 to 1 µM
- BRM HiBit Degradation Maximum measured (HiBit-BRM fusion protein): A (‘A’ = Maximum degradation >75%)
- DC50 [1]: 0.1 to 1 µM
- Dmax [1]: > 75%

Structure (SMILES): Cc1ncsc1-c1ccc(CNC(=O)[C@@H]2C[C@@H](O)CN2C(=O)[C@@H](NC(=O)CCCCCCCCCCCCCCC(=O)NCc2cccc(-c3cccc(-c4csc(NC(=O)CNC(=O)c5ccn(S(C)(=O)=O)c5)n4)c3)c2)C(C)(C)C)cc1 [Compound 120, N1-((S)-1-((2S,4R)-4-hydroxy-2-((4-(4-methylthiazol-5-yl)benzyl)carbamoyl)pyrrolidin-1-yl)-3,3-dimethyl-1-oxobutan-2-yl)-N16-((3′-(2-(2-(1-(methylsulfonyl)-1H-pyrrole-3-carboxamido)acetamido)thiazol-4-yl)-[1,1′-biphenyl]-3-yl)methyl)hexadecanediamide]
- DC50 (HiBit-BRM fusion protein): > 10 µM
- BRM HiBit Degradation Maximum measured (HiBit-BRM fusion protein): C (‘C’ = Maximum degradation <50%)
- DC50 [1]: > 10 µM
- Dmax [1]: < 50%

Structure (SMILES): Cc1ncsc1-c1ccc(CNC(=O)[C@@H]2C[C@@H](O)CN2C(=O)[C@@H](NC(=O)CCCCCCCCCCC(=O)NCCCC[C@H](NC(=O)c2ccn(S(C)(=O)=O)c2)C(=O)Nc2nc(-c3ccccc3)cs2)C(C)(C)C)cc1 [Compound 265]
- DC50 (HiBit-BRM fusion protein): > 10 µM
- BRM HiBit Degradation Maximum measured (HiBit-BRM fusion protein): C (‘C’ = Maximum degradation <50%)
- DC50 [1]: > 10 µM
- Dmax [1]: < 50%

Structure (SMILES): Cc1ncsc1-c1ccc(CNC(=O)[C@@H]2C[C@@H](O)CN2C(=O)[C@@H](NC(=O)CCCCCCCCC(=O)NCCOc2cc(-c3cccc(-c4csc(NC(=O)CNC(=O)c5ccn(S(C)(=O)=O)c5)n4)c3)ccn2)C(C)(C)C)cc1 [Compound 69, N1-((S)-1-((2S,4R)-4-hydroxy-2-((4-(4-methylthiazol-5-yl)benzyl)carbamoyl)pyrrolidin-1-yl)-3,3-dimethyl-1-oxobutan-2-yl)-N10-(2-((4-(3-(2-(2-(1-(methylsulfonyl)-1H-pyrrole-3-carboxamido)acetamido)thiazol-4-yl)phenyl)pyridin-2-yl)oxy)ethyl)decanediamide]
- DC50 (HiBit-BRM fusion protein): < 0.1 µM
- BRM HiBit Degradation Maximum measured (HiBit-BRM fusion protein): A (‘A’ = Maximum degradation >75%)
- DC50 [1]: 0.1 to 1 µM
- Dmax [1]: > 75%

Structure (SMILES): CN(CCOCCOCCNc1cccc2c1C(=O)N(C1CCC(=O)NC1=O)C2=O)C(=O)CN(C)c1cc(-c2cccc(-c3csc(NC(=O)CNC(=O)c4ccn(S(C)(=O)=O)c4)n3)c2)ccn1 (stereo not drawn) [Compound 84]
- DC50 (HiBit-BRM fusion protein): > 10 µM
- BRM HiBit Degradation Maximum measured (HiBit-BRM fusion protein): C (‘C’ = Maximum degradation <50%)
- DC50 [1]: > 10 µM
- Dmax [1]: < 50%

Structure (SMILES): CS(=O)(=O)n1ccc(C(=O)N[C@@H](COCc2ccc(C(=O)NCCOCCOCCOCCNC(=O)COc3cccc4c3C(=O)N(C3CCC(=O)NC3=O)C4=O)cc2)C(=O)Nc2nc(-c3ccccc3)cs2)c1 (stereo partly drawn) [Compound 236, N-((2S)-3-((4-((1-((2-(2,6-dioxopiperidin-3-yl)-1,3-dioxoisoindolin-4-yl)oxy)-2-oxo-6,9,12-trioxa-3-azatetradecan-14-yl)carbamoyl)benzyl)oxy)-1-oxo-1-((4-phenylthiazol-2-yl)amino)propan-2-yl)-1-(methylsulfonyl)-1H-pyrrole-3-carboxamide]
- DC50 (HiBit-BRM fusion protein): > 10 µM
- BRM HiBit Degradation Maximum measured (HiBit-BRM fusion protein): C (‘C’ = Maximum degradation <50%)
- DC50 [1]: > 10 µM
- Dmax [1]: < 50%
